In patent publication EP0049968A1, “Pharmaceutical compositions” (priority 1980, dated 1982):
Read-outs that look alike come from different tables or passages of the source.

Legend:
[1] = system: K-aerogenes strains producing both a plasmid-mediated and chromosomally mediated β-lactamase; assay: MIC of compound (i) alone and in combination with compound (iii), K. aerogenes strains; type: cell-based, Klebsiella aerogenes; conditions: for MIC: Klebsiella aerogenes
[2] = system: highly resistant strains of Pseudomonas aeruginosa (producing both a plasmid-and chromosomally-mediated β-lactamase); assay: MIC of compound (i) alone and in combination with compound (iii), Pseudomonas aeruginosa strains; type: cell-based; conditions: for MIC: Pseudomonas aeruginosa
[3] = read-out: MIC µg/ml compound (i) alone
[4] = read-out: MIC µg/ml compound (i) alone, Geometric mean

Which MIC [1, 3] does the source give for `CC1(C)S[C@@H]2[C@H](NC(=O)[C@H](NC(=O)Nc3cnc(Nc4ccc(S(N)(=O)=O)cc4)nc3O)c3ccc(O)cc3)C(=O)N2[C@H]1C(=O)O` [compound (i)] here?
The MIC was over 160 µg/mL.

And the MIC [1, 4]?
Its MIC is over 160 µg/mL.

And the “MIC µg/ml compound (i) compound (iii) (µg/ml) 1, Geometric mean” value ([1]; geometric mean of 11 K. aerogenes strains, with compound (iii) 1 µg/ml, 95% confidence limits (0.49-50.9))?
Its value is 5.0 µg/mL.

What about the “MIC µg/ml compound (i) compound (iii) (µg/ml) 2, Geometric mean” value ([1]; geometric mean of 11 K. aerogenes strains, with compound (iii) 2 µg/ml, 95% confidence limits (0.3-14.4)) of the same molecule?
The value was 2.1 µg/mL.

What about the “MIC µg/ml compound (i) compound (iii) (µg/ml) 5, Geometric mean” value ([1]; geometric mean of 11 K. aerogenes strains, with compound (iii) 5 µg/ml, 95% confidence limits (0.14-4.5)) of the same molecule?
Its value is 0.81 µg/mL.

What about the “MIC µg/ml compound (i) compound (iii) (µg/ml) 10, Geometric mean” value ([1]; geometric mean of 11 K. aerogenes strains, with compound (iii) 10 µg/ml, 95% confidence limits (0.04-0.9)) of the same molecule?
Its value is 0.19 µg/mL.

And the “MIC µg/ml compound (i) alone” value ([1]; strain 11793)?
Its value is over 160 µg/mL.

And the “MIC µg/ml compound (i) compound (iii) (µg/ml) 1” value ([1]; strain 11793, with compound (iii) 1 µg/ml)?
Its value is 10 µg/mL.

And the “MIC µg/ml compound (i) compound (iii) (µg/ml) 2” value ([1]; strain 11793, with compound (iii) 2 µg/ml)?
The value was 5 µg/mL.

And the “MIC µg/ml compound (i) compound (iii) (µg/ml) 5” value ([1]; strain 11793, with compound (iii) 5 µg/ml)?
The value was 2.5 µg/mL.

What about the “MIC µg/ml compound (i) compound (iii) (µg/ml) 10” value ([1]; strain 11793, with compound (iii) 10 µg/ml) of the same molecule?
Its value is 1.25 µg/mL.

And the “MIC µg/ml compound (i) alone” value ([1]; strain 11974)?
Its value is over 160 µg/mL.

What about the “MIC µg/ml compound (i) compound (iii) (µg/ml) 1” value ([1]; strain 11974, with compound (iii) 1 µg/ml) of the same molecule?
Its value is 0.31 µg/mL.

What about the “MIC µg/ml compound (i) compound (iii) (µg/ml) 2” value ([1]; strain 11974, with compound (iii) 2 µg/ml) of the same molecule?
The value was 0.16 µg/mL.

What about the “MIC µg/ml compound (i) compound (iii) (µg/ml) 5” value ([1]; strain 11974, with compound (iii) 5 µg/ml) of the same molecule?
The value was 0.08 µg/mL.

What about the “MIC µg/ml compound (i) compound (iii) (µg/ml) 10” value ([1]; strain 11974, with compound (iii) 10 µg/ml) of the same molecule?
Its value is 0.04 µg/mL.

And the “MIC µg/ml compound (i) compound (iii) (µg/ml) 2” value ([1]; strain BED4, with compound (iii) 2 µg/ml)?
The value was 2.5 µg/mL.

And the “MIC µg/ml compound (i) compound (iii) (µg/ml) 5” value ([1]; strain BED4, with compound (iii) 5 µg/ml)?
The value was 1.25 µg/mL.

What about the “MIC µg/ml compound (i) compound (iii) (µg/ml) 10” value ([1]; strain BED4, with compound (iii) 10 µg/ml) of the same molecule?
Its value is 0.31 µg/mL.

And the “MIC µg/ml compound (i) alone” value ([1]; strain BED6)?
The value was over 160 µg/mL.

And the “MIC µg/ml compound (i) compound (iii) (µg/ml) 1” value ([1]; strain BED6, with compound (iii) 1 µg/ml)?
Its value is 0.62 µg/mL.

What about the “MIC µg/ml compound (i) compound (iii) (µg/ml) 2” value ([1]; strain BED6, with compound (iii) 2 µg/ml) of the same molecule?
Its value is 0.31 µg/mL.

What about the “MIC µg/ml compound (i) compound (iii) (µg/ml) 5” value ([1]; strain BED6, with compound (iii) 5 µg/ml) of the same molecule?
Its value is 0.16 µg/mL.

And the “MIC µg/ml compound (i) compound (iii) (µg/ml) 10” value ([1]; strain BED6, with compound (iii) 10 µg/ml)?
Its value is 0.08 µg/mL.

And the “MIC µg/ml compound (i) alone” value ([1]; strain BED9)?
The value was over 160 µg/mL.

And the “MIC µg/ml compound (i) compound (iii) (µg/ml) 1” value ([1]; strain BED9, with compound (iii) 1 µg/ml)?
The value was 0.31 µg/mL.

What about the “MIC µg/ml compound (i) compound (iii) (µg/ml) 2” value ([1]; strain BED9, with compound (iii) 2 µg/ml) of the same molecule?
The value was 0.31 µg/mL.

And the “MIC µg/ml compound (i) compound (iii) (µg/ml) 5” value ([1]; strain BED9, with compound (iii) 5 µg/ml)?
Its value is 0.16 µg/mL.

What about the “MIC µg/ml compound (i) compound (iii) (µg/ml) 10” value ([1]; strain BED9, with compound (iii) 10 µg/ml) of the same molecule?
The value was 0.04 µg/mL.

What about the “MIC µg/ml compound (i) alone” value ([1]; strain Ba95) of the same molecule?
Its value is over 160 µg/mL.

What about the “MIC µg/ml compound (i) compound (iii) (µg/ml) 1” value ([1]; strain Ba95, with compound (iii) 1 µg/ml) of the same molecule?
Its value is 0.31 µg/mL.

And the “MIC µg/ml compound (i) compound (iii) (µg/ml) 2” value ([1]; strain Ba95, with compound (iii) 2 µg/ml)?
The value was 0.31 µg/mL.

And the “MIC µg/ml compound (i) compound (iii) (µg/ml) 5” value ([1]; strain Ba95, with compound (iii) 5 µg/ml)?
The value was 0.16 µg/mL.

What about the “MIC µg/ml compound (i) compound (iii) (µg/ml) 10” value ([1]; strain Ba95, with compound (iii) 10 µg/ml) of the same molecule?
The value was 0.02 µg/mL.

And the “MIC µg/ml compound (i) alone” value ([1]; strain SA4)?
The value was over 160 µg/mL.

What about the “MIC µg/ml compound (i) compound (iii) (µg/ml) 1” value ([1]; strain SA4, with compound (iii) 1 µg/ml) of the same molecule?
The value was 2.5 µg/mL.

What about the “MIC µg/ml compound (i) compound (iii) (µg/ml) 2” value ([1]; strain SA4, with compound (iii) 2 µg/ml) of the same molecule?
The value was 1.25 µg/mL.

What about the “MIC µg/ml compound (i) compound (iii) (µg/ml) 5” value ([1]; strain SA4, with compound (iii) 5 µg/ml) of the same molecule?
The value was 0.31 µg/mL.

What about the “MIC µg/ml compound (i) compound (iii) (µg/ml) 10” value ([1]; strain SA4, with compound (iii) 10 µg/ml) of the same molecule?
The value was 0.08 µg/mL.

And the “MIC µg/ml compound (i) alone” value ([1]; strain VA1)?
The value was over 160 µg/mL.

And the “MIC µg/ml compound (i) compound (iii) (µg/ml) 1” value ([1]; strain VA1, with compound (iii) 1 µg/ml)?
The value was 10 µg/mL.

And the “MIC µg/ml compound (i) compound (iii) (µg/ml) 2” value ([1]; strain VA1, with compound (iii) 2 µg/ml)?
The value was 5 µg/mL.

And the “MIC µg/ml compound (i) compound (iii) (µg/ml) 5” value ([1]; strain VA1, with compound (iii) 5 µg/ml)?
Its value is 2.5 µg/mL.

What about the “MIC µg/ml compound (i) compound (iii) (µg/ml) 10” value ([1]; strain VA1, with compound (iii) 10 µg/ml) of the same molecule?
Its value is 0.31 µg/mL.

And the “MIC µg/ml compound (i) alone” value ([1]; strain VA2)?
Its value is over 160 µg/mL.

And the “MIC µg/ml compound (i) compound (iii) (µg/ml) 1” value ([1]; strain VA2, with compound (iii) 1 µg/ml)?
Its value is 40 µg/mL.

What about the “MIC µg/ml compound (i) compound (iii) (µg/ml) 2” value ([1]; strain VA2, with compound (iii) 2 µg/ml) of the same molecule?
Its value is 10 µg/mL.

And the “MIC µg/ml compound (i) compound (iii) (µg/ml) 5” value ([1]; strain VA2, with compound (iii) 5 µg/ml)?
Its value is 2.5 µg/mL.

What about the “MIC µg/ml compound (i) compound (iii) (µg/ml) 10” value ([1]; strain VA2, with compound (iii) 10 µg/ml) of the same molecule?
The value was 0.62 µg/mL.

What about the “MIC µg/ml compound (i) alone” value ([1]; strain VA3) of the same molecule?
Its value is over 160 µg/mL.

What about the “MIC µg/ml compound (i) compound (iii) (µg/ml) 1” value ([1]; strain VA3, with compound (iii) 1 µg/ml) of the same molecule?
The value was 40 µg/mL.

What about the “MIC µg/ml compound (i) compound (iii) (µg/ml) 2” value ([1]; strain VA3, with compound (iii) 2 µg/ml) of the same molecule?
The value was 10 µg/mL.

And the “MIC µg/ml compound (i) compound (iii) (µg/ml) 5” value ([1]; strain VA3, with compound (iii) 5 µg/ml)?
The value was 2.5 µg/mL.

And the “MIC µg/ml compound (i) compound (iii) (µg/ml) 10” value ([1]; strain VA3, with compound (iii) 10 µg/ml)?
Its value is 0.31 µg/mL.

What about the “MIC µg/ml compound (i) alone” value ([1]; strain VA5) of the same molecule?
Its value is over 160 µg/mL.

What about the “MIC µg/ml compound (i) compound (iii) (µg/ml) 1” value ([1]; strain VA5, with compound (iii) 1 µg/ml) of the same molecule?
The value was over 80 µg/mL.

And the “MIC µg/ml compound (i) compound (iii) (µg/ml) 2” value ([1]; strain VA5, with compound (iii) 2 µg/ml)?
The value was 80 µg/mL.

And the “MIC µg/ml compound (i) compound (iii) (µg/ml) 5” value ([1]; strain VA5, with compound (iii) 5 µg/ml)?
The value was 20 µg/mL.

What about the “MIC µg/ml compound (i) compound (iii) (µg/ml) 10” value ([1]; strain VA5, with compound (iii) 10 µg/ml) of the same molecule?
Its value is 2.5 µg/mL.

What about the MIC [2, 3] of the same molecule?
The MIC was over 160 µg/mL.

And the MIC [2, 4]?
The MIC was over 160 µg/mL.

And the “MIC µg/ml compound (i) compound (iii) (µg/ml) 1, Geometric mean” value ([2]; geometric mean of 6 Pseudomonas aeruginosa strains, with compound (iii) 1 µg/ml, 95% confidence limits (13.7-58.5))?
The value was 28.3 µg/mL.

What about the “MIC µg/ml compound (i) compound (iii) (µg/ml) 2, Geometric mean” value ([2]; geometric mean of 6 Pseudomonas aeruginosa strains, with compound (iii) 2 µg/ml, 95% confidence limits (4.7-21.4)) of the same molecule?
The value was 10 µg/mL.

What about the “MIC µg/ml compound (i) compound (iii) (µg/ml) 5, Geometric mean” value ([2]; geometric mean of 6 Pseudomonas aeruginosa strains, with compound (iii) 5 µg/ml, 95% confidence limits (3.1-12.9)) of the same molecule?
Its value is 6.1 µg/mL.

What about the “MIC µg/ml compound (i) compound (iii) (µg/ml) 10, Geometric mean” value ([2]; geometric mean of 6 Pseudomonas aeruginosa strains, with compound (iii) 10 µg/ml, 95% confidence limits (2.7-14.6)) of the same molecule?
The value was 6.3 µg/mL.

What about the “MIC µg/ml compound (i) alone” value ([2]; strain 1822, compound (i) alone) of the same molecule?
The value was over 160 µg/mL.

And the “MIC µg/ml compound (i) compound (iii) (µg/ml) 1” value ([2]; strain 1822, with compound (iii) 1 µg/ml)?
Its value is 40 µg/mL.
